The values below come from US11237155B2, “Screening methods using olfactory receptors and novel compounds identified using the same” (MARS, INCORPORATED, priority 2016, dated 2022).

SMILES strings stand for the structures.

Holding throughout (format): cell-based
The test system of one test is Cat OR5A1. The test is described as follows: CNG chAMPion assay, OR_9 (OR5A1), cat ortholog. The conditions noted are these: cat OR5A1, phase 3.
Another test concerns the target T1, Human OR5A1 (Homo sapiens, UniProt Q8NGJ0).
T1 construct: expressed in transfected cells; host or cells: HEK293 PEAKrapid/RTP1s endo (reporter cell line A)
T1 sequence (Q8NGJ0 1-315): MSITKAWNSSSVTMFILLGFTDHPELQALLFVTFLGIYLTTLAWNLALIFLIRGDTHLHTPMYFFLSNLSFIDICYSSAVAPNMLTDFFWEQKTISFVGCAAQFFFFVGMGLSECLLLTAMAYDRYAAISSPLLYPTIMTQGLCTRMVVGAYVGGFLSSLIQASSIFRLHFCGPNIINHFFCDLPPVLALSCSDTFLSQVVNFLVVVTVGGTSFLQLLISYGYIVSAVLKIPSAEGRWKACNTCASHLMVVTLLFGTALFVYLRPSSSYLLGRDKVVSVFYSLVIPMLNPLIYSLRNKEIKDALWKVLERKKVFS
The test is described as follows: CRE-NanoLuc luciferase assay, OR_9 (OR5A1), human ortholog. Particulars: human OR5A1, phase 3.

Another test has as its system Dog OR5A1. Kind of test: CNG chAMPion assay, OR_9 (OR5A1), dog ortholog. The conditions noted are these: dog OR5A1, phase 3. From the text: This example refers to the functional expression of different feline and canine olfactory receptors (ORs). 20 OR sequences were selected, where 10 sequences have feline origins and the remaining 10 have canine origins. These ORs were subcloned into a modified expression vector suitable for the transient, functional expression of ORs. The transiently expressed receptors were then stimulated with various concentrations of different odorants aiming to deorphanize the feline and canine ORs. […] Functional expression of the different OR sets were transient in reporter cell line A or B. The transiently transfected ORs were stimulated with 3 concentrations (n=4) of different odorants (at least 3).
chAMPion (CNG channel) assay. […]
Twenty-four hours later, the cell medium was removed manually and cells were incubated in 20 μL/well coelenterazine (11 μM) in Tyrode buffer with 0 mM calcium for 3.5 h at 37° C. Plates were then read in a luminescence plate reader (FLIPR^TETRA, Molecular Devices) with the following camera settings: exposure time: 0.533 s, maximum gain. Luminescence was recorded for 1 min after addition of 10 μL/well compounds (3× solutions prepared in Tyrode buffer with 0 mM calcium), followed by an incubation period of 30 min at 37° C. Luminescence was again recorded for 1 min after addition of 20 μL/well Tyrode buffer with 10 mM CaCl2. […]

Procedure for Cat OR5A1: chAMPion (CNG channel) assay. HEK293/CNG/nat-Clytin/RTP1 s endo cells were transiently transfected with plasmids encoding the respective OR and were seeded at 20,000 cells/well in 25 μL/well complete growth medium in poly-D-lysine coated black, clear-bottom 384 MTPs.
Data were analyzed with the Screenworks® software (Molecular Devices, version 4.0.0.30). Luminescence values (in RLU) were exported as maximum RLU between 10 s and 40 s. In addition to using raw values, the data were also normalized to background signals (wells containing buffer only) and expressed as “Fold change” (mean value (n=2)/mean value of buffer wells (n=2)). Data analysis and plotting of graphs was carried out using Excel (Microsoft) and GraphPad Prism (GraphPad Software, Inc.).

In the case of `CC(C)=CCCC(C)=CC=O` [citral, Citral], in the test with Cat OR5A1, the “receptor response (dose-response, fold change)” value is listed as “no response”.
On to `CC(=O)/C=C/C1=C(C)CCCC1(C)C` [β-ionone, beta-Ionone], for which the “receptor response (dose-response, fold change)” value on Human OR5A1 is listed as “responds”. Also, in the test on Dog OR5A1, the “EC50 (rank among the four compounds)” value is reported as “lowest EC50” and the “Emax (rank among the four compounds)” value is “highest Emax”. The “receptor response (dose-response, fold change)” value in the test on Cat OR5A1 is reported as “strong response”.
Consider `CCCCCOC(C)=O` [amyl acetate, Amyl acetate], for which the “receptor response (dose-response, fold change)” value in the test with Cat OR5A1 was “weaker responses”.
